Experimental findings from ChEMBL document CHEMBL5108004, “An auristatin-based peptide-drug conjugate targeting Kita-Kyushu lung cancer antigen 1 for precision chemoradiotherapy in gastric cancer” (Eur J Med Chem, 2022) are described below.

SMILES strings stand for the structures. Activity calls are given as the source filed them. No cut-off for these calls is given here. *1 amine or outer side, *2 acyl side, *3 side chain or, on linkers, in order; H or OH if unused. Where a SMILES comes first, the peptide text is derived from it. Bridges are numbered along the chain shown (N, C = ends). Roman numbers before positions name the chains, in order. [ ]: non-standard residue; d: D form. The star is where a group is joined. Hexanoyl(6-succinimido-3yl) = O=C1CC([*:1])C(=O)N1CCCCCC(=O)[*:2]; Dolaproine = CO[C@@H]([C@@H]1CCCN1)[C@@H](C)C(=O)O; Dil = CC[C@H](C)[C@H](NC)[C@@H](CC(=O)O)OC; PABC = O=C(OCc1ccc(N[*:1])cc1)[*:2]; X1 = C[C@@H](N*)[C@@H](O)c1ccccc1; Cit = NC(=O)NCCC[C@H](N)C(=O)O; NMeV = CN[C@H](C(=O)O)C(C)C

A short description of data set [1]: Toxicity in male BALB/c nude mouse xenografted with KK-LC-1-positive human MKN-45 cells assessed as body weight loss at 0.3 mg/kg, iv administered twice a week for 3 weeks. It counts as organism-based. The following applies: in vivo, 504 h.
Data set [2] in a line: Toxicity in male BALB/c nude mouse xenografted with KK-LC-1-positive human MKN-45 cells assessed as mouse death at 3 mg/kg, iv administered twice a week for 3 weeks. To be noted: in vivo, 504 h. Format: organism-based.
Data set [3] can be described thus: Stability in PBS at 37 degreeC measured after 48 hrs by HPLC analysis. It counts as physicochemical. To be noted: buffer.
Data set [4] in a line: Toxicity in male BALB/c nude mouse xenografted with KK-LC-1-positive human MKN-45 cells assessed as effect on kidney function at 2 mg/kg, iv administered twice a week for 3 weeks. To be noted: in vivo, 504 h. It counts as organism-based.
Data set [5] in a line: Toxicity in male BALB/c nude mouse xenografted with KK-LC-1-positive human NUGC-4 cells assessed as effect on body weight at 0.3 mg/kg, iv administered once a week for 3 weeks followed by exposure to 2 Gy gamma irradiation for 2 consecutive days once a week for 3 weeks. It counts as organism-based. The following applies: in vivo, 504 h.
A short description of data set [6]: Toxicity in male BALB/c nude mouse xenografted with KK-LC-1-positive human NUGC-4 cells assessed as mouse survival at 0.3 mg/kg, iv administered once a week for 3 weeks followed by exposure to 2 Gy gamma irradiation for 2 consecutive days once a week for 3 weeks measured after 47 days. It counts as organism-based. The following applies: in vivo.
Data set [7] concerns MKN-45. The data set is described as follows: Antitumor activity against KK-LC-1-positive human MKN-45 cells xenografted in male BALB/c nude mouse assessed as reduction in tumor volume at 0.3 mg/kg, iv administered twice a week for 3 weeks. It counts as functional. Further details: scale not given: the % may be the effect or the level left.
Data set [8] in a line: Toxicity in male BALB/c nude mouse xenografted with KK-LC-1-positive human MKN-45 cells assessed as effect on kidney function at 1 mg/kg, iv administered twice a week for 3 weeks. The following applies: in vivo, 504 h. Format: organism-based.
Data set [9] has as its system MKN-45. Briefly: Cell cycle arrest in KK-LC-1-positive human MKN-45 cells assessed as increase accumulation at G2/M phase at 20 to 100 nM measured after 24 hrs by propidium iodide staining based flow cytometric analysis. Format: functional. The following applies: dose 20-100 nM, DDE = dose-dependent effect.
Data set [10] has as its system MKN-45. The data set is described as follows: Antitumor activity against KK-LC-1-positive human MKN-45 cells xenografted in male BALB/c nude mouse assessed as induction of tumor regression at 0.3 mg/kg, iv administered twice a week for 3 weeks. It counts as functional, organism-based.
Data set [11] in a line: Stability in human plasma assessed as compound remaining at 500 uM measured after 48 hrs by HPLC analysis. It counts as ADME, cell-free. The following applies: read-out: Stability.
Data set [12] concerns MKN-45. The data set is described as follows: Cell cycle arrest in KK-LC-1-positive human MKN-45 cells assessed as increase accumulation at G2/M phase at 100 nM measured after 0 to 48 hrs by propidium iodide staining based flow cytometric analysis. Format: functional. To be noted: time 0-48 hrs, TDE = time-dependent effect.
The target in data set [13] is T1, Kita-kyushu lung cancer antigen 1 (Homo sapiens) (UniProt Q5H943).
T1 sequence (whole entry): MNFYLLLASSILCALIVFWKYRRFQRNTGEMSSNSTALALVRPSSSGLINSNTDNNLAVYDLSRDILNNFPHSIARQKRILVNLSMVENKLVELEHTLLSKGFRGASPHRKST
Briefly: Binding affinity to KK-LC-1 in KK-LC-1-positive human MKN-45 cells using FITC-labeled compound at 1 to 1000 uM incubated for 30 mins and measured by flow cytometry assay. It counts as cell-based. To be noted: dose 1-1000 µM.

Data set [14] deals with MKN-45. Briefly: Induction of apoptosis in KK-LC-1-positive human MKN-45 cells at 100 nM incubated for 24 hrs followed by exposure to 2 Gy gamma irradiation by AnnexinV/PI-staining based flow cytometry. It counts as functional, cell-based.
For data set [15], the target named is T1, Kita-kyushu lung cancer antigen 1 (Homo sapiens). Briefly: Binding affinity to KK-LC-1 in KK-LC-1-positive human NUGC-4 cells using FITC-labeled compound at 1 to 1000 uM incubated for 30 mins and measured by flow cytometry assay. The following applies: dose 1-1000 µM. Format: cell-based.
The next data set relates to NUGC-4. Briefly: Cell cycle arrest in KK-LC-1-positive human NUGC-4 cells assessed as accumulation at G2/M phase at 40 nM measured after 24 hrs by propidium iodide staining based flow cytometric analysis (reference value: 21.5 +/- 0.7 %). Format: functional.
A short description of data set [16]: Toxicity in male BALB/c nude mouse xenografted with KK-LC-1-positive human MKN-45 cells assessed as body weight loss at 3 mg/kg, iv administered twice a week for 3 weeks. It counts as organism-based. To be noted: in vivo, 504 h.
A short description of data set [17]: Drug uptake in KK-LC-1-positive human NUGC-4 cells using FITC-labeled compound at 100 uM incubated for 10 to 70 mins and assessed as drug internalization measured by DAPI staining method. Format: ADME, cell-based. To be noted: nugc-4, 100 µM, time 10-70 min.
Data set [18] is described as follows: Toxicity in male BALB/c nude mouse xenografted with KK-LC-1-positive human MKN-45 cells assessed as increase in survival of mouse at 0.3 mg/kg, iv administered twice a week for 3 weeks. The following applies: in vivo, 504 h. Format: organism-based.
In data set [19] the test system is MKN-45. The data set is described as follows: Cytotoxicity against KK-LC-1-positive human MKN-45 cells incubated for 72 hrs by CCK-8 assay. The following applies: MKN-45, 72 h. It counts as functional, cell-based.

For the compound `CC[C@H](C)[C@@H]([C@@H](CC(=O)N1CCC[C@H]1[C@H](OC)[C@@H](C)C(=O)N[C@H](C)[C@@H](O)c1ccccc1)OC)N(C)C(=O)[C@@H](NC(=O)[C@@H](NC(=O)[C@H](C(C)C)N(C)C(=O)OCc1ccc(NC(=O)[C@H](CCCNC(N)=O)NC(=O)[C@@H](NC(=O)CCCCCN2C(=O)CC(SC[C@H](N)C(=O)N[C@H]3CSSC[C@@H](C(=O)O)NC(=O)[C@H]([C@@H](C)O)NC(=O)[C@H]([C@@H](C)O)NC(=O)[C@H](CC(C)C)NC(=O)[C@H](C)NC(=O)[C@H]([C@@H](C)O)NC(=O)[C@H](CC(N)=O)NC(=O)[C@H](CCCCN)NC3=O)C2=O)C(C)C)cc1)C(C)C)C(C)C` (stereo not given in full) (I: H-CCKNTALTTC-OH / II: V[Cit][PABC][NMeV]VV[Dil][Dolaproine]-X1; linker I:1-II:N via Hexanoyl(6-succinimido-3yl); disulfide I:2-I:10), the Activity entry in data set [1] was “Non-Toxic”; in data set [2], “Toxic”; in [4] it was “Non-Toxic”; in [5] it was “Non-Toxic”; in the data set with MKN-45 [7], 48.5%; in data set [8], “Non-Toxic”. The Activity result in the data set with MKN-45 [9] is “Dde”; in the data set with MKN-45 [12], “Tde”; with NUGC-4 it was 49.53%; in data set [16] it was “Toxic”; in data set [18], “Non-Toxic”. Further, in data set [3], the Stability entry was “Stable”. The survival at 504 h in data set [6] is 83.3%. For the same compound, the result (in the data set with MKN-45 [10]; in data set [13]; with MKN-45 [14]; in [15]) was Active. For the same compound, the remaining at 48 h, 500 µM in data set [11] was found to be 13.2%. The Drug uptake result in data set [17] is “Active”. The same compound displayed an IC50 in the data set with MKN-45 [19] of 5.26 nM.
